The supplement of paper PMC10307832

These cell lines were tested with CN1CCC(CC1)OC2=CC(=C(C=C2)NC3=NC=C4C(=N3)N(C(=O)N4C)C5CCCC5)OC [AZ3146] + CC(C)C[C@H](NC(=O)[C@H](Cc1ccccc1)NC(=O)c1cnccn1)B(O)O [Bortezomib] (partner 0.002 µM) (assay: relative viability (nuclei count vs DMSO), 5 days (fraction); higher = more cells survive). Settings: first compound 0.08 µM.
Outline: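 Lung cancer cell lines, seeded in 1536-well plates, were treated the following day by pin tool with a single drug or with five library-drug doses (not always all listed) in √10 steps on top of a fixed anchor-drug dose. Cells were fixed and nuclei stained in one step after 5 days, and nuclei were counted. Relative viability is the nuclei count for treated wells divided by that for vehicle wells, reported as medians of duplicate plates.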
ChaGo-K-1 was tested, and the relative viability was 0.93. For NCI-H1734, the relative viability was 0.98. NCI-H650 was tested, and the relative viability was 0.519. With NCI-H2228 the relative viability was 0.904. In the case of HARA, the relative viability is reported as 1.04. COR-L23 gave a relative viability of 0.912. Work on LCLC-103H yielded a relative viability of 0.993. With LXF-289 the relative viability was 0.996. In the case of NCI-H322M, the relative viability is reported as 1.29. Cell Line LC-2-ad has a relative viability of 0.857. HCC-827 showed a relative viability of 0.933. With CAL-12T the relative viability was 1.28. For HCC-15, the relative viability was 1.01. Work on HOP-62 yielded a relative viability of 0.401. With NCI-H460 the relative viability was 1.14. LU99A showed a relative viability of 0.91. Work on NCI-H2085 yielded a relative viability of 1. In the case of A-427, the relative viability is reported as 0.995. NCI-H520 was tested, and the relative viability was 0.355. Work on NCI-H838 yielded a relative viability of 0.908. NCI-H596 showed a relative viability of 0.961. NCI-H3122 was tested, and the relative viability was 1.08. With 201T the relative viability was 1.1. NCI-H1993 gave a relative viability of 1.05. NCI-H1355 was tested, and the relative viability was 1.09. For NCI-H2405, the relative viability was 1.02. NCI-H1437 showed a relative viability of 0.497. NCI-H661 showed a relative viability of 0.71. COR-L 105 was tested, and the relative viability was 0.677. H3255 gave a relative viability of 0.757. With NCI-H2347 the relative viability was 0.747.

Same assay, conditions: first compound 0.253 µM
For ChaGo-K-1, the relative viability was 0.837. Cell Line NCI-H1734 has a relative viability of 1.03. Cell Line NCI-H650 has a relative viability of 0.691. For NCI-H2228, the relative viability was 1.03. For HARA, the relative viability was 1.15. Cell Line COR-L23 has a relative viability of 1.17. LCLC-103H showed a relative viability of 1.03. Cell Line LXF-289 has a relative viability of 1.02. NCI-H322M was tested, and the relative viability was 1.18. For LC-2-ad, the relative viability was 1.05. Work on HCC-827 yielded a relative viability of 1.07. HCC-15 showed a relative viability of 1.08. HOP-62 was tested, and the relative viability was 0.967. NCI-H460 was tested, and the relative viability was 0.92. Cell Line LU99A has a relative viability of 1.16. Cell Line NCI-H2085 has a relative viability of 1.09. A-427 gave a relative viability of 1.06. With NCI-H520 the relative viability was 0.677. In the case of NCI-H838, the relative viability is reported as 0.832. Cell Line NCI-H596 has a relative viability of 1.05. NCI-H3122 showed a relative viability of 1. BEN was tested, and the relative viability was 0.588. 201T was tested, and the relative viability was 1.07. For NCI-H1993, the relative viability was 1.07. Work on NCI-H1355 yielded a relative viability of 1.19. Work on NCI-H2405 yielded a relative viability of 1. For NCI-H1437, the relative viability was 0.441. NCI-H661 gave a relative viability of 0.893. COR-L 105 was tested, and the relative viability was 0.896. H3255 gave a relative viability of 0.627. NCI-H2347 gave a relative viability of 1.08.

Same assay, conditions: first compound 0.8 µM
With ChaGo-K-1 the relative viability was 0.932. NCI-H1734 showed a relative viability of 0.895. NCI-H650 was tested, and the relative viability was 0.762. NCI-H2228 gave a relative viability of 1.04. HARA gave a relative viability of 1.15. COR-L23 gave a relative viability of 0.991. With LCLC-103H the relative viability was 1. For LXF-289, the relative viability was 0.978. NCI-H322M was tested, and the relative viability was 1.18. LC-2-ad showed a relative viability of 1.03. Work on HCC-827 yielded a relative viability of 1.11. CAL-12T gave a relative viability of 0.897. Cell Line HCC-15 has a relative viability of 1.02. In the case of HOP-62, the relative viability is reported as 0.694. For NCI-H460, the relative viability was 1.02. Cell Line LU99A has a relative viability of 1.21. NCI-H2085 showed a relative viability of 0.962. In the case of A-427, the relative viability is reported as 0.94. Work on NCI-H520 yielded a relative viability of 0.614. NCI-H838 was tested, and the relative viability was 0.882. Work on NCI-H3122 yielded a relative viability of 0.997. For BEN, the relative viability was 0.752. 201T showed a relative viability of 1.11. Cell Line NCI-H1993 has a relative viability of 1.19. NCI-H1355 showed a relative viability of 1.17. Cell Line NCI-H2405 has a relative viability of 0.944. NCI-H1437 showed a relative viability of 0.469. NCI-H661 gave a relative viability of 0.92. COR-L 105 gave a relative viability of 0.78. H3255 gave a relative viability of 0.825. NCI-H2347 was tested, and the relative viability was 0.758.

Same assay, conditions: first compound 2.53 µM
ChaGo-K-1 gave a relative viability of 0.961. NCI-H1734 was tested, and the relative viability was 0.992. Cell Line NCI-H650 has a relative viability of 0.999. NCI-H2228 was tested, and the relative viability was 1.18. HARA was tested, and the relative viability was 1.14. For COR-L23, the relative viability was 0.984. LCLC-103H was tested, and the relative viability was 0.994. Cell Line LXF-289 has a relative viability of 1.01. Cell Line NCI-H322M has a relative viability of 1.29. With LC-2-ad the relative viability was 0.996. For HCC-827, the relative viability was 1.09. With CAL-12T the relative viability was 1.08. HCC-15 showed a relative viability of 1.12. HOP-62 showed a relative viability of 0.851. With NCI-H460 the relative viability was 0.97. In the case of LU99A, the relative viability is reported as 1.1. NCI-H2085 was tested, and the relative viability was 1.18. A-427 was tested, and the relative viability was 1.07. Work on NCI-H520 yielded a relative viability of 0.673. With NCI-H838 the relative viability was 0.738. Cell Line NCI-H596 has a relative viability of 1.07. With NCI-H3122 the relative viability was 0.999. For BEN, the relative viability was 0.762. Work on 201T yielded a relative viability of 1.16. In the case of NCI-H1993, the relative viability is reported as 1.2. Work on NCI-H1355 yielded a relative viability of 1.25. For NCI-H2405, the relative viability was 0.994. NCI-H1437 was tested, and the relative viability was 0.535. Cell Line NCI-H661 has a relative viability of 0.922. COR-L 105 showed a relative viability of 0.554. H3255 was tested, and the relative viability was 0.835. NCI-H2347 gave a relative viability of 1.02.

Same assay, conditions: first compound 8 µM
With ChaGo-K-1 the relative viability was 0.738. NCI-H1734 gave a relative viability of 0.834. Cell Line NCI-H650 has a relative viability of 0.897. NCI-H2228 gave a relative viability of 0.953. Cell Line HARA has a relative viability of 0.533. With COR-L23 the relative viability was 0.886. In the case of LCLC-103H, the relative viability is reported as 0.965. With LXF-289 the relative viability was 0.908. In the case of NCI-H322M, the relative viability is reported as 1.18. LC-2-ad showed a relative viability of 0.668. HCC-827 was tested, and the relative viability was 1.09. Cell Line CAL-12T has a relative viability of 0.644. Cell Line HCC-15 has a relative viability of 1.04. HOP-62 gave a relative viability of 0.44. With NCI-H460 the relative viability was 0.543. Work on LU99A yielded a relative viability of 1.18. NCI-H2085 gave a relative viability of 0.952. For A-427, the relative viability was 0.875. In the case of NCI-H520, the relative viability is reported as 0.583. For NCI-H838, the relative viability was 0.302. NCI-H596 showed a relative viability of 0.935. Work on NCI-H3122 yielded a relative viability of 1.07. With BEN the relative viability was 0.726. In the case of 201T, the relative viability is reported as 1.12. Work on NCI-H1993 yielded a relative viability of 0.976. In the case of NCI-H1355, the relative viability is reported as 1.28. In the case of NCI-H2405, the relative viability is reported as 1.11. NCI-H1437 showed a relative viability of 0.479. With NCI-H661 the relative viability was 0.692. With COR-L 105 the relative viability was 0.294. In the case of H3255, the relative viability is reported as 0.792. NCI-H2347 gave a relative viability of 1.02.
